# Patent CN112516145A, “小分子化合物wk369在制备治疗卵巢癌药物中的应用” (East China Normal University, priority 2019, dated 2021)
# How the values were obtained:
# BCL6 [1] = molecular target: T1, BCL6 (Homo sapiens, UniProt P41182); conditions: greater than 50 or even 200; cited from earlier work
# ATR = assay: qRT-PCR of BCL6 downstream gene ATR in ovarian cancer cells; assay type: cell-based; conditions: ES-2, H08910PM, SKOV3, 24 h
# [2] = Body weight, behaviour and organ HE staining in SKOV3 xenograft mice
# PARP [3] = assay: PARP protein by electrophoresis (blot), SKOV3; assay type: cell-based, human
# CDKN1A = assay: qRT-PCR of BCL6 downstream gene CDKN1A in ovarian cancer cells; assay type: cell-based; conditions: ES-2, H08910PM, SKOV3, 24 h
# [4] = mouse, in vivo
# P53 = assay: qRT-PCR of BCL6 downstream gene P53 in ovarian cancer cells; assay type: cell-based; conditions: ES-2, H08910PM, SKOV3, 24 h
# SKOV3 tumor (SKOV3肿瘤) = assay: SKOV3 subcutaneous xenograft in nude mice, tumor growth; assay type: in vivo, human SKOV3 cells in nude mouse; conditions: intraperitoneal once daily, about 21 days
# SKOV3 cells [5] = assay: Transwell invasion assay, SKOV3; assay type: cell-based, human
# ES-2 cells [6] = assay: Scratch lateral migration assay, ES-2; assay type: cell-based, human; conditions: 1, 5, 10 μM, about 12 h
# ES-2 cells [7] = assay: ES-2-luc ovarian cancer intraperitoneal metastasis mouse model; assay type: in vivo, human ES-2 cells in mouse; conditions: 50mg/kg
# ES-2 cells [8] = assay: Apoptosis by AnnexinV/PI flow cytometry, ES-2; assay type: cell-based, human; conditions: ES-2, 48 h
# SKOV3 cells [9] = assay: Cell cycle by flow cytometry, SKOV3; assay type: cell-based, human; conditions: SKOV3, 24 h
# [10] = molecular target: T2, BCL6-SMRT interaction (BCL6片段蛋白与多肽SMRT的相互作用) (Homo sapiens, UniProt P41182); assay: HTRF assay of inhibition of BCL6 fragment protein - SMRT polypeptide interaction; assay type: biochemical
# T2 construct: 本发明所需BCL6蛋白N端的BTB/POZ结构域序列为; made in house
# [11] = tested on: BCL6 downstream genes ATR, P53, CDKN1A (BCL6下游基因); assay: qPCR of BCL6 downstream genes in SKOV3 xenograft; assay type: in vivo, human SKOV3 cells in nude mouse
# [12] = tested on: BCL6 transcriptional repression activity (BCL6的转录抑制活性); assay: Luciferase reporter gene assay of BCL6 transcriptional repression (293T cells); assay type: cell-based; conditions: 24 h
# [13] = Behaviour and adverse reactions in ES-2 intraperitoneal metastasis mice; conditions: 50mg/kg, continuous dosing, 30 days
# [14] = tested on: BCL6-low-expressing ovarian cancer cell line IGROV-1 (BCL6低表达卵巢癌细胞株); assay: SRB proliferation assay, BCL6-low ovarian cancer cell line; assay type: cell-based, human
# [15] = tested on: mouse germinal center formation (小鼠生发中心的形成); assay: Mouse germinal center formation model; assay type: in vivo; conditions: 50mg/kg/d, intraperitoneal, 12 days
# SKOV3 cells [16] = assay: Apoptosis by AnnexinV/PI flow cytometry, SKOV3; assay type: cell-based, human; conditions: SKOV3, 48 h
# ES-2 cells [17] = assay: Cell cycle by flow cytometry, ES-2; assay type: cell-based, human; conditions: ES-2, 24 h
# [18] = tested on: BCL6-high-expressing ovarian cancer cells ES-2, SKOV3, H08910PM, MCAS, CAOV3, OVCAR8 (BCL6高表达卵巢癌细胞); assay: Colony formation assay; assay type: cell-based, human
# [19] = tested on: normal cell lines HAF, L02, NCM460, 293T, PNT1A (正常细胞株); assay: SRB proliferation assay, normal cell lines; assay type: cell-based, human; conditions: Fig. 4(C)
# PARP [20] = assay: PARP protein by electrophoresis (blot), ES-2; assay type: cell-based, human
# SKOV3 cells [21] = assay: Scratch lateral migration assay, SKOV3; assay type: cell-based, human; conditions: 1, 5, 10 μM, about 12 h
# ES-2 cells [22] = assay: Transwell invasion assay, ES-2; assay type: cell-based, human
# Ki67 = assay: Immunohistochemistry of Ki67 in SKOV3 xenograft; assay type: in vivo, human SKOV3 cells in nude mouse
# [23] = tested on: CyclinB1, cdc25C, CyclinD1; assay: Cell cycle regulatory proteins by electrophoresis (blot), SKOV3; assay type: cell-based, human
# [24] = tested on: CyclinB1, cdc25C, CyclinD1; assay: Cell cycle regulatory proteins by electrophoresis (blot), ES-2; assay type: cell-based, human
# [25] = animal level; cited from earlier work
# BCL6 [26] = molecular target: T1, BCL6; conditions: cited from earlier work
# [27] = tested on: patients with platinum-sensitive recurrent ovarian cancer (铂敏感的复发型卵巢癌患者); conditions: clinical phase II and III; cited from earlier work
structure (smiles),measurement,setting,value
O=C(O)CC(C(=O)O)N1C(=O)C(=C2C(=O)Nc3ccc(Br)cc32)SC1=S (stereo not shown) [79-6],concentration exerting function at molecular and cellular level,BCL6 [1],> 50 µM
C[C@@H]1CN(c2ncc(F)c(Nc3ccc4oc(=O)ccc4c3)n2)C[C@H](C)N1 [WK369],upregulation of ATR expression,"ATR; 1, 5, 10, 20 μM",几倍至十几倍
same,upregulation of ATR expression compared with FX1,ATR; FX1 20 μM,更为显著地上调
same,"toxicity to major organs (heart, liver, spleen, lung, kidney), HE staining",[2],没有明显毒性
same,full-length PARP protein,PARP [3],显著下调
same,truncated PARP protein,PARP [3],上调
same,upregulation of CDKN1A expression,"CDKN1A; 1, 5, 10, 20 μM, highest",最高可上调几十倍
same,upregulation of CDKN1A expression compared with FX1,CDKN1A; FX1 20 μM,更为显著地上调
same,abnormal behaviour and adverse reactions,[4],并未发现小鼠异常行为和不良反应
same,body weight change compared with blank control,[4],没有明显变化
same,upregulation of P53 expression,"P53; 1, 5, 10, 20 μM",几倍至十几倍
same,upregulation of P53 expression compared with FX1,P53; FX1 20 μM,更为显著地上调
same,inhibition of tumor growth compared with FX1 (50mg/kg),SKOV3 tumor (SKOV3肿瘤); 25mg/kg,显著优于阳性化合物FX1
same,"inhibition of tumor growth, 50mg/kg compared with 25mg/kg",SKOV3 tumor (SKOV3肿瘤); 50mg/kg vs 25mg/kg,效果显著优于本发明化合物WK36925mg/kg的给药剂量
same,tumor proliferation,SKOV3 tumor (SKOV3肿瘤); 50mg/kg,肿瘤增殖非常缓慢
same,inhibition of tumor growth,SKOV3 tumor (SKOV3肿瘤); 25 and 50mg/kg,有效抑制肿瘤的生长
same,number of invading cells,"SKOV3 cells [5]; SKOV3, 1 μM, 12-24 h",已显著减少
same,cells that invade,"SKOV3 cells [5]; SKOV3, 10 μM, 12-24 h",只有极少数的细胞发生侵袭
same,inhibition of invasion,"SKOV3 cells [5]; SKOV3, high concentration (FX1 10 μM), WK369 1, 5, 10 μM",显著抑制
same,inhibition of migration,ES-2 cells [6],浓度依赖性地抑制
same,survival rate of mice,ES-2 cells [7],有效提高
same,intraperitoneal spread and metastasis,ES-2 cells [7]; 30 days,有效抑制
same,tumor growth (bioluminescence),ES-2 cells [7]; 30 days,显著降低
same,"number of tumor nodules on the surface of abdominal organs (liver, spleen, kidney, intestine, ovary)","ES-2 cells [7]; 30 days, compared with control group",明显减少
same,induction of apoptosis compared with positive compound,ES-2 cells [8],更显著地诱导
same,cell cycle arrest at G2M phase,SKOV3 cells [9],浓度依赖性地诱导
same,IC50,"[10]; 6His-SMRT 200 nM, BCL6-GST 6.25 nM, room temperature overnight, read-out: half-maximal inhibitory concentration (IC50)",0.315 µM
same,fold improvement over FX1 in inhibiting BCL6 fragment protein - SMRT interaction,[10]; WK369 versus positive compound FX1,~120 fold
same,upregulation of BCL6 downstream genes in vivo compared with positive compound,[11],更好地上调
same,BCL6 transcriptional repression activity at 20 μM,[12]; 20 μM,完全消除
same,inhibition of BCL6 transcriptional repression activity,"[12]; concentration series, compared with positive compound","浓度依赖性抑制BCL6的转录抑制活性,效果显著优于阳性化合物"
same,toxicity,[13],没有明显毒性
same,IC50,"[14]; BCL6-low-expressing ovarian cancer cells (IGROV-1), 72 h, read-out: half-maximal proliferation inhibition activity",~16 µM
same,difference in half-maximal proliferation inhibition activity between BCL6-high and BCL6-low ovarian cancer cell lines,[14]; Fig. 4(D),具有显著性差异
same,decrease in germinal center B cell proportion compared with positive compound,[15],下降比例更为显著
same,inhibition of mouse germinal center formation,[15],均能抑制小鼠生发中心的形成
same,induction of apoptosis compared with positive compound,SKOV3 cells [16],更显著地诱导
same,cell cycle arrest at G2M phase,ES-2 cells [17],浓度依赖性地诱导
same,inhibition of colony formation compared with FX1,[18]; BCL6-high-expressing lines,显著优于阳性化合物FX1
same,inhibition of colony formation,"[18]; BCL6-high-expressing lines, one week",很显著的抑制效果
same,"inhibition of colony formation, BCL6-high compared with BCL6-low ovarian cancer cell lines",[18]; compared with BCL6-low-expressing line,对BCL6高表达卵巢癌细胞株的抑制效果更为明显
same,difference in half-maximal proliferation inhibition activity between human ovarian cancer and human normal cell lines,[19],具有显著性差异
same,full-length PARP protein,PARP [20],显著下调
same,truncated PARP protein,PARP [20],上调
same,inhibition of migration,SKOV3 cells [21],浓度依赖性地抑制
same,number of invading cells,"ES-2 cells [22]; ES-2, 1 μM, 12-24 h",已显著减少
same,cells that invade,"ES-2 cells [22]; ES-2, 10 μM, 12-24 h",只有极少数的细胞发生侵袭
same,inhibition of invasion,"ES-2 cells [22]; ES-2, high concentration (FX1 10 μM), WK369 1, 5, 10 μM",显著抑制
same,expression of tumor proliferation marker Ki67,Ki67,显著降低
same,CyclinB1 expression,[23],显著下调
same,CyclinD1 expression,[23],显著下调
same,cdc25C expression,[23],显著下调
same,CyclinB1 expression,[24],显著下调
same,CyclinD1 expression,[24],显著下调
same,cdc25C expression,[24],显著下调
CNC(=O)COc1cc2cc(Nc3nc(N4C[C@H](C)C[C@H](C)C4)ncc3Cl)ccc2n(C)c1=O [BI3802],absorption,[25],很难被吸收
same,biological activity at animal level,BCL6 [26],生物活性差
O=C(c1cc(Cc2n[nH]c(=O)c3ccccc23)ccc1F)N1CCN(C(=O)C2CC2)CC1 [奥卡帕尼],overall survival (OS),[27],并不能延长
